# In US8044208B2 (Sanofi-Aventis, priority 2005, dated 2011):
# Molecular target: T1, TAFIa (Homo sapiens, UniProt Q96IY4)
# T1 construct: purchased American Diagnostica 874TAFIA
# T1 sequence (Q96IY4 115-423): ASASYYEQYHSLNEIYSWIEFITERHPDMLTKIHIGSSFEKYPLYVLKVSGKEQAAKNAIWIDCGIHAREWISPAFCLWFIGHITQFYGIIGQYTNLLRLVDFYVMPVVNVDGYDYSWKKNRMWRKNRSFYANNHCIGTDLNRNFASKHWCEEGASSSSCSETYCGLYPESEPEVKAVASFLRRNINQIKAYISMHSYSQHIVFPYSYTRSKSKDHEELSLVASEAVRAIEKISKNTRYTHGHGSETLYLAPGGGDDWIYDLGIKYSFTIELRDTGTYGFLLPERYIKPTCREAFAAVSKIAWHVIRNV
# Test: TAFIa enzyme assay (Actichrome plasma TAFI activity kit)
# Format: biochemical
# Details: 15 min preincubation at room temperature, read at 420 nm, duplicate determination
# Method: The prepared substances were tested for TAFIa inhibition using the Actichrome plasma TAFI activity kit from American Diagnostica (Pr. No. 874). This entailed adding 29 μl of assay buffer (20 mM Hepes, 150 mM NaCl, pH 7.4) and 10 μl of TAFIa (American Diagnostica Pr. No. 874TAFIA; […]) to 1 μl of 5 mM DMSO solution of the substance and incubating in a 96 half-well microtiter plate at room temperature for 15 minutes. The enzymic reaction was started by adding 10 μl of TAFIa developer (prediluted 1:2 with water). The time course of the reaction was followed at 420 nm in a microtiter plate reader (SpectraMax plus 384; Molecular Devices) for 15 minutes. The IC50 values were calculated from the averaged values (duplicate determination) of serial dilutions of the substance with the aid of the Software Grafit 4 (Erithacus Software, UK).
row,Structure (SMILES),IC50
1,"Cc1cc(CC(C(=O)O)c2cn(Cc3nnc(C4CC4)s3)cn2)cnc1N (centres unmarked) [Example 61, 3-(6-Amino-5-methylpyridin-3-yl)-2-[1-(5-cyclopropyl-[1,3,4]thiadiazol-2-ylmethyl)-1H-imidazol-4-yl]propionic acid]",0.026 µM
2,"CC(C)(C)c1ccc(-c2noc(Cn3cnc(C(Cc4ccc(N)nc4)C(=O)O)c3)n2)cc1 (centres unmarked) [Example 17, 3-(6-Aminopyridin-3-yl)-2-{1-[3-(4′-tert-butylphenyl)-[1,2,4]oxadiazol-5-ylmethyl]-1H-imidazol-4-yl}propionic acid]",0.745 µM
3,"CCC(C)c1ccc(-c2cc(Cn3cnc(C(Cc4ccc(N)nc4)C(=O)O)c3)no2)cc1 (centres unmarked) [Example 46, 3-(6-Aminopyridin-3-yl)-2-{1-[5-(4-sec-butylphenyl)isoxazol-3-ylmethyl]-1H-imidazol-4-yl}propionic acid]",0.003 µM
4,"Nc1ccc(CC(C(=O)O)c2cn(Cc3noc(-c4ccc(C(F)(F)F)cc4)n3)cn2)cn1 (centres unmarked) [Example 10, 3-(6-Aminopyridin-3-yl)-2-{1-[5-(4-trifluoromethylphenyl)-[1,2,4]oxadiazol-3-ylmethyl]-1H-imidazol-4-yl}propionic acid]",0.258 µM
5,"Nc1ccc(CC(C(=O)O)c2cn(Cc3nnc(-c4ccc(Cl)cc4)s3)cn2)cn1 (centres unmarked) [Example 8, 3-(6-Aminopyridin-3-yl)-2-{1-[5-(4-chlorophenyl)-[1,3,4]thiadiazol-2-ylmethyl]-1H-imidazol-4-yl}propionic acid]",0.041 µM
6,"CC(C)(C)c1nnc(Cn2cnc(C(Cc3ccc(N)nc3)C(=O)O)c2)s1 (centres unmarked) [Example 9, 3-(6-Aminopyridin-3-yl)-2-[1-(5-tert-butyl-[1,3,4]thiadiazol-2-ylmethyl)-1H-imidazol-4-yl]propionic acid]",0.169 µM
7,"Cc1nc(-c2cc(Cn3cnc(C(Cc4ccc(N)nc4)C(=O)O)c3)no2)cs1 (centres unmarked) [Example 18, 3-(6-Aminopyridin-3-yl)-2-{1-[5-(2-methylthiazol-4-yl)isoxazol-3-ylmethyl]-1H-imidazol-4-yl}propionic acid]",0.326 µM
8,"Nc1ccc(CC(C(=O)O)c2cn(Cc3cnc(-c4ccc(Cl)s4)s3)cn2)cn1 (centres unmarked) [Example 3, 3-(6-Aminopyridin-3-yl)-2-{1-[2-(5-chlorothiophen-2-yl)thiazol-5-ylmethyl]-1H-imidazol-4-yl}propionic acid]",0.326 µM
9,"COc1ccc(-c2cc(Cn3cnc(C(Cc4ccc(N)nc4)C(=O)O)c3)no2)cc1 (centres unmarked) [Example 5, 3-(6-Aminopyridin-3-yl)-2-{1-[5-(4-methoxyphenyl)isoxazol-3-ylmethyl]-1H-imidazol-4-yl}propionic acid]",0.104 µM
10,COc1ccc(-c2nc(Cn3cnc(C(Cc4ccc(N)nc4)C(=O)O)c3)no2)cc1 (centres unmarked) [Example 15],0.223 µM
11,"Nc1ccc(CC(C(=O)O)c2cn(Cc3nnc(C4CC4)s3)cn2)cn1 (centres unmarked) [Example 12, 3-(6-Aminopyridin-3-yl)-2-[1-(5-cyclopropyl-[1,3,4]thiadiazol-2-ylmethyl)-1H-imidazol-4-yl]propionic acid]",0.03 µM
12,"COc1ccc(-c2nnc(Cn3cnc(C(Cc4ccc(N)nc4)C(=O)O)c3)s2)cc1 (centres unmarked) [Example 22, 3-(6-Aminopyridin-3-yl)-2-{1-[5-(4-methoxyphenyl)-[1,3,4]thiadiazol-2-ylmethyl]-1H-imidazol-4-yl}propionic acid]",0.078 µM
13,"Nc1ccc(CC(C(=O)O)c2cn(Cc3cc(-c4ccc(Cl)s4)on3)cn2)cn1 (centres unmarked) [Example 1, 3-(6-Aminopyridin-3-yl)-2-{1-[5-(5-chlorothiophen-2-yl)isoxazol-3-ylmethyl]-1H-imidazol-4-yl}propionic acid]",0.041 µM
14,"Nc1ccc(C[C@H](C(=O)O)c2cn(Cc3cc(-c4ccc(Cl)s4)on3)cn2)cn1 [Example 58, (S)-3-(6-Aminopyridin-3-yl)-2-{1-[5-(5-chlorothiophen-2-yl)isoxazol-3-ylmethyl]-1H-imidazol-4-yl}propionic acid]",0.004 µM
